The source of these data is publication PMC6874683, “Pyrrothiogatain acts as an inhibitor of GATA family proteins and inhibits Th2 cell differentiation in vitro” (Scientific Reports, 2019).

SMILES strings stand for the structures. Entries after “also recorded” stand apart in the source; their conditions may differ.

For assay [1], the target named is T1, GATA3-SOX4 interaction (Homo sapiens, UniProt P23771).
T1 construct: we synthesized the recombinant full-length GATA3 protein with an N-terminal FLAG tag using the wheat cell-free system; made in house; host or cells: wheat cell-free protein synthesis system (WEPRO1240 kit), BirA added for biotinylation
T1 sequence (P23771 whole entry): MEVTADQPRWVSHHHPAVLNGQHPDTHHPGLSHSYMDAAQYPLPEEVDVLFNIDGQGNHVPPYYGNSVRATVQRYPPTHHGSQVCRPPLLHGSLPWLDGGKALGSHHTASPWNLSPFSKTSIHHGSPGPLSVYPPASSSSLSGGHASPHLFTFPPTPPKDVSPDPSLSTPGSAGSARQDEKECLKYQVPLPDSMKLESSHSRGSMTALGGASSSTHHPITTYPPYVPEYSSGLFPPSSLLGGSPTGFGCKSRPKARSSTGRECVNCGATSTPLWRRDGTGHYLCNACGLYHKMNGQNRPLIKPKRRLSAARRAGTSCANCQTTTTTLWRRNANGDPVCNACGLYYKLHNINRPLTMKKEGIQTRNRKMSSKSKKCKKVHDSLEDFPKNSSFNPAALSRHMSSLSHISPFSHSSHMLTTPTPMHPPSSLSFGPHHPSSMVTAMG
The assay is described as follows: Immunoprecipitation of GATA3 and SOX4. Particulars: 0 to 100 µM. It counts as binding. The protocol: Co-immunoprecipitation analysis of GATA3 and SOX4 was conducted as follows. Immunoprecipitation of FLAG-tagged GATA3 in the presence of pyrrothiogatain (0 to 100 µM) was performed by mixing recombinant FLAG-GATA3 and AGIA-SOX4 with 10 µL of anti-FLAG M2 affinity agarose gel (cat#A2220, Sigma-Aldrich) by rotation at 4 °C for 2 h. The agarose gels were washed three times, and then the immunoprecipitated protein was detected by immunoblotting using anti-FLAG M2 antibody and anti-AGIA-HRP[36].

The subject of assay [2] is Th2 cytokine and GATA3 mRNA. The assay can be described thus: Quantitative RT-PCR, naive CD4+ T cells under Th2 conditions. It counts as cell-based, mouse. The settings on record: 5 days. Here is the method:
C57BL/6 mice were purchased from Clea (Clea Japan, Inc., Tokyo, Japan). Total CD4^+ T cells isolated from mouse spleen were prepared using a FITC anti-mouse CD4 antibody (Cat#100510, RM4–5, BioLegend) and anti-FITC-microbeads (Cat#130-097-050, Miltenyi Biotec). Naive CD4^+ T cells (CD44^low, CD62L^high) were prepared using a MojoSort Mouse CD4 T cell Isolation Kit (Cat#480033), BioLegend). Biotinylated anti-CD44 (Cat#103004, IM7) and anti-CD25 antibodies (Cat#102004, PC61) were purchased from BioLegend. CD4^+ T cells (7.5 × 10^5) were stimulated using immobilized anti-TCR-β mAb (3 µg/mL, H57–597, BioLegend) plus an anti-CD28 mAb (1.0 µg/mL, cat#40–0281, TONBO Biosciences) for 2 days, and then, the cells were further expanded under similar conditions for an additional 3 days. IL-2 conditions: IL-2 (10 ng/mL, Pepro Tech); Th2 conditions: IL-2 (10 ng/mL, Pepro Tech), IL-4 (1 ng/mL, Pepro Tech), and anti-IFN-γ mAb (2.5 µg/mL, cat#40–731, TONBO Biosciences). Th1 conditions: IL-2 (10 ng/mL, Pepro Tech), IL-12 (1 ng/mL, Pepro Tech), and anti-IL-4 mAb (2.5 µg/mL, cat#40–731, TONBO Biosciences). The cultured cells were subjected to intracellular staining, ELISA assay, and RT-PCR. All animal experiments received approval from the Ehime University Administrative Panel for Animal Care. All animal care was conducted in accordance with the guidelines of Ehime University. […]

Assay [3] has as its system OVA-induced allergic mice. The assay can be described thus: OVA-induced allergic airway inflammation model. It counts as in vivo, mouse. The settings on record: 20 mg/kg intraperitoneally every day from day 0 to 6, versus vehicle control. Here is the method: C57BL/6 mice at 7 weeks old were immunized intraperitoneally with 100 µg OVA (Cat#A5503, Sigma) in 2 % aluminium hydroxide gel (Cat#vax-alu-250, InvivoGen) on day 0. The mice were challenged intranasally with 100 µg OVA in saline on days 7, 8 and 9. Pyrrothiogatain was administrated intraperitoneally at a concentration of 20 mg/kg in PBS every day from day 0 to 6. The day after the last OVA challenge, BAL fluid cells were subjected to histological examination using the Diff Quick stain (Cat#16920, Sysmex). All animal experiments received approval from the Ehime University Administrative Panel for Animal Care. All animal care was conducted in accordance with the guidelines of Ehime University.

Assay [4] addresses T1, GATA3-SOX4 interaction. The assay can be described thus: AlphaScreen binding assay of GATA3 and SOX4. Particulars: pyrrothiogatain 0 to 100 µM. The protocol:
The GATA3 protein has been reported to directly interact with SOX4[22]. We next investigated whether pyrrothiogatain interrupted the interaction between GATA3 and SOX4. […] Interaction between biotin-labelled SOX4 and FLAG-GATA3 was analysed by the AlphaScreen system (Fig. 4B).
Figure 4 Pyrrothiogatain inhibits the GATA3–SOX4 interaction. (A) Immunoblot analysis of biotin fused recombinant SOX4 (Biotin-SOX4) synthesized by the wheat cell-free system. The whole translational mixture (W) and the supernatant (S) were analysed using an anti-biotin antibody. (B) A schematic diagram of the binding assay to detect the direct binding between GATA3 and SOX4. When FLAG-tagged GATA3 binds with biotin fused SOX4, AlphaScreen beads generate a luminescent signal. (C) The binding assay of GATA3 and SOX4. The luminescence signals were detected by AlphaScreen technology. FLAG-DHFR was used as a control. (D) The inhibition assay of the binding of GATA3 and SOX4 in the presence of various concentrations of pyrrothiogatain (0 to 100 µM). The binding activity was calculated from the AlphaScreen signal. (E) The binding of recombinant GATA3 with SOX4 in the presence of pyrrothiogatain (0 to 100 µM) was assessed by immunoprecipitation assay. […] In (C,D), all data are expressed as individual points of three independent experiments with error bars indicating standard deviation.
A general note: Alpha assays give light when donor and acceptor beads are brought close together.

Usually IC50 stands for the midpoint of a concentration-inhibition curve. Higher therefore signals weaker potency in that assay. Take `Cc1ccc(C)n1-c1ccsc1C(=O)O` [Pyrrothiogatain, 3-(2,5-dimethyl-1H-pyrrol-1-yl)thiophene-2-carboxylic acid]: the “GATA3-SOX4 interaction by immunoprecipitation” value at GATA3-SOX4 interaction [1] is on record as “dose-dependent decrease”. For the same molecule, in assay [2] (30 and 80 µM), the “mRNA expression of IL-4, IL-5 and IL-13 (RT-qPCR)” value is on record as “Decreased”. Besides, the “Expression of GATA3, mRNA level” value in assay [2] was “not influenced”. In addition, in assay [3], the “Number of inflammatory cells in the bronchoalveolar lavage (BAL) fluid” value is listed as “no significant difference; also recorded: did not significantly decrease”. The IC50 at GATA3-SOX4 interaction [4] turned out to be 95.2 µM.
